Columns and labels:
nvTRPM2 [1] = molecular target: T1, nvTRPM2 (Nematostella vectensis, UniProt A7T1N0, E1443I/F1444L)
T1 construct: gene TRPM2

nvTRPM2 [2] = molecular target: T2, nvTRPM2 (Nematostella vectensis, UniProt A7T1N0, E1446K/E1447K)
T2 construct: gene TRPM2
T2 sequence (A7T1N0 whole entry E1446K/E1447K): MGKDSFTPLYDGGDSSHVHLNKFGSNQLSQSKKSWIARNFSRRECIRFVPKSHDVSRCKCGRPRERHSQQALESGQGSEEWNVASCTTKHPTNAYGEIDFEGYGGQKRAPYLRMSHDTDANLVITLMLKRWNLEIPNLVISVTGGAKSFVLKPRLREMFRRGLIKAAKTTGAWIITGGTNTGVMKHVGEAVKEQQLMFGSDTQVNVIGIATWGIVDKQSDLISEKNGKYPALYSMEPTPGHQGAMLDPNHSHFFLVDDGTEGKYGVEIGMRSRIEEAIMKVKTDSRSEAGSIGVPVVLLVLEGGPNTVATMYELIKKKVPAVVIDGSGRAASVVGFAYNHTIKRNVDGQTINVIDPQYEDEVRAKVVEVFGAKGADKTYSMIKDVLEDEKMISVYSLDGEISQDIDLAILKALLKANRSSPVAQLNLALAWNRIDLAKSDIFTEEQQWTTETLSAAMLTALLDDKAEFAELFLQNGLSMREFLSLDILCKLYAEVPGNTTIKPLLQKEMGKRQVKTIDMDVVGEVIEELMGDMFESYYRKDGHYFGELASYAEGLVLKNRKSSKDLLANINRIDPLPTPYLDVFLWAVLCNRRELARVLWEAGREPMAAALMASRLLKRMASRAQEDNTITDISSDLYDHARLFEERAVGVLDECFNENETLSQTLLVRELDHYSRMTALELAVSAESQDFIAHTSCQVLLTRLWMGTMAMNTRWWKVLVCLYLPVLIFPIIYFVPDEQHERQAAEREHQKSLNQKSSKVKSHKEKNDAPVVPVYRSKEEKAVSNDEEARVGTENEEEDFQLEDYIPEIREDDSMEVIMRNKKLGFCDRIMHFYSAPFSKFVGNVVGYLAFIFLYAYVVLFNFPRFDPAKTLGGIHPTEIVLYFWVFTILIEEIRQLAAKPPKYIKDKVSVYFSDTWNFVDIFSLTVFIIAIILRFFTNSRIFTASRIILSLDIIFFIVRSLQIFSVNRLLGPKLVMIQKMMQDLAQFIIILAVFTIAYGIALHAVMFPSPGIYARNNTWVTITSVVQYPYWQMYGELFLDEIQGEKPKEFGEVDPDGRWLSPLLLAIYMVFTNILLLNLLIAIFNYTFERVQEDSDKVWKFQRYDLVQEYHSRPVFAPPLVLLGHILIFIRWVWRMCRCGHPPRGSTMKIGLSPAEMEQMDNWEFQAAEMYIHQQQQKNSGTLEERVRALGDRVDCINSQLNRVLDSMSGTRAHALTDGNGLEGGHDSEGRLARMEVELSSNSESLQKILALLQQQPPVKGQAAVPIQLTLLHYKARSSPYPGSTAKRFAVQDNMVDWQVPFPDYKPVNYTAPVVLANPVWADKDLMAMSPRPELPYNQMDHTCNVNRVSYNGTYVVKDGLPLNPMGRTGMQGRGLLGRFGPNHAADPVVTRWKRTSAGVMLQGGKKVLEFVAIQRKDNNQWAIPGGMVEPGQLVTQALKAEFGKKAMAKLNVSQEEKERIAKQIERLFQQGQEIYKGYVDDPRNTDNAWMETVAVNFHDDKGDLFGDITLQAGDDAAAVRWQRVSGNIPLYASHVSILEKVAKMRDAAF

T1 sequence (A7T1N0 whole entry E1443I/F1444L): as the sequence (A7T1N0 whole entry E1446K/E1447K) above, with E1443I, F1444L, K1446E, K1447E counted along it

Q: Which results are given for Nc1ncnc2c1ncn2[C@@H]1O[C@H](COP(=O)(O)OP(=O)(O)OC[C@H]2OC(O)[C@H](O)[C@@H]2O)[C@@H](O)[C@H]1O (some centres unmarked) [ADPR]?
A: EC50 (nvTRPM2 [1]): ~2 µM; EC50 (nvTRPM2 [2]): ~2 µM
